# Test results taken from patent publication US5281628A, “9-amino-7-(substituted)-6-demethyl-6-deoxytetracyclines” (American Cyanamid Company, priority 1991, dated 1994).
# Counter-ions that a name gives are not always drawn.
# What was measured:
# [1] = system: Coagulase negative staphylococci CI 535; experiment: MIC, microtiter broth dilution; type: cell-based; settings: 18 h
# Protocol: (§1) The minimum inhibitory concentration (MIC), the lowest concentration of the antibiotic which inhibits growth of the test organism, is determined by the microtiter broth dilution method using 0.1 ml Muller-Hinton II broth (Baltimore Biological Laboratories) per well. A suitable oxygen scavenger (i.e., cysteine or dithiothreitol) is added to the assay medium for the testing of compounds according to Formula I because of the sensitivity of those compounds to oxidation. An inoculum level of 1-5×10^5 CFU/ml and a range of antibiotic concentrations (32 0.004 μg/ml) are used.
# [2] = system: Coagulase negative staphylococci CI 664; experiment: MIC, microtiter broth dilution; type: cell-based; settings: 18 h
# Protocol: as §1
# [3] = system: E. faecalis CI 2735; experiment: MIC, microtiter broth dilution; type: cell-based; settings: Enterococcus faecalis, CI2735, 18 h
# Protocol: as §1
# [4] = system: P. aeruginosa ATCC 27853; experiment: MIC, microtiter broth dilution; type: cell-based; settings: Pseudomonas aeruginosa, ATCC27853, 18 h
# Protocol: as §1
# [5] = system: S. aureus ATCC 29213; experiment: MIC, microtiter broth dilution; type: cell-based; settings: Staphylococcus aureus, ATCC29213, 18 h
# Protocol: as §1
# [6] = system: S. aureus CI 2371 (methicillin-resistant); experiment: MIC, microtiter broth dilution; type: cell-based; settings: Staphylococcus aureus, 18 h
# Protocol: as §1
# [7] = system: S. aureus IVES 2943 (methicillin-resistant); experiment: MIC, microtiter broth dilution; type: cell-based; settings: Staphylococcus aureus, 18 h
# Protocol: as §1
# [8] = system: S. aureus UBMS 88-4 (tetracycline-sensitive); experiment: MIC, microtiter broth dilution; type: cell-based; settings: Staphylococcus aureus, 18 h
# Protocol: as §1
# [9] = system: S. aureus UBMS 90-3 (tetracycline-sensitive); experiment: MIC, microtiter broth dilution; type: cell-based; settings: Staphylococcus aureus, 18 h
# Protocol: as §1
# [10] = system: E. coli S30 Ribosomes, Wild Type (tetracycline sensitive); experiment: In vitro protein translation with E. coli S30 ribosomes, wild type; type: biochemical; settings: for inhibition of protein synthesis on wild type ribosomes (in words): coupled transcription and translation system
# Protocol: The E. coli in vitro translation system can be used to study not only the mechanism of protein translation itself, but also the effect that various compounds may have on protein synthesis. The system can be set up to function as a coupled transcription and translation system or as a translation only system depending on whether DNA or RNA is added to initiate protein synthesis. In this way, compounds affecting either RNA synthesis and/or protein synthesis can be studied. Protein synthesis is monitored by the incorporation of radiolabeled amino acids into trichloroacetic acid precipitable material. The system used is based upon literature methods [G. Zubay, Ann. Rev. Genet., 7: 267-287(1973) and J. Collins, Gene, 6: 28-42 (1979)].
# The system used to study tetracycline protein synthesis inhibition is as follows:
# An S30 extract (supernatant from a 30,000×G centrifugation of lysed cells) of either tetracycline sensitive or tetracycline resistant (tetM+) cells is combined with a mixture of low molecular weight compounds required for protein synthesis which include a mixture of 19 amino acids, methionine, ^35 S-methionine, plasmid template DNA and either dimethylsulfoxide (DMSO) or the tetracycline to be tested dissolved and diluted in DMSO. This mixture is incubated at 37° C. for 30 minutes. Following the incubation, 2.5 μl of the 10 μl reaction is removed and added to 0.5 ml of 1N sodium hydroxide. The solution is incubated an additional 15 minutes at 37° C., to destroy any m-RNA and t-RNA. The incorporation of ^35 S-methionine is determined by precipitating the high molecular weight material in the sodium hydroxide aliquot with trichloroacetic acid (TCA), collecting the precipitated material on Whatman G/FC filters, drying the filters and counting the radioactivity retained on the filter. Percent inhibition (P.I.) of protein synthesis is determined by the following equation: [formula]
# [11] = system: E. coli UBMS 89-1 (tetM); experiment: MIC, microtiter broth dilution; type: cell-based; settings: Escherichia coli, 18 h
# Protocol: as §1
# [12] = system: E. coli UBMS 89-2 (tetracycline-sensitive); experiment: MIC, microtiter broth dilution; type: cell-based; settings: Escherichia coli, 18 h, no cysteine stated
# Protocol: as §1
# [13] = system: E. coli UBMS 90-4 (tetM); experiment: MIC, microtiter broth dilution; type: cell-based; settings: Escherichia coli, 18 h
# Protocol: as §1
# [14] = system: E. faecalis AMV 120 (tetM); experiment: MIC, microtiter broth dilution; type: cell-based; settings: Enterococcus faecalis, 18 h
# Protocol: as §1
# [15] = system: E. faecalis PAM 211 (tetN); experiment: MIC, microtiter broth dilution; type: cell-based; settings: Enterococcus faecalis, 18 h
# Protocol: as §1
# [16] = system: M. morganii NEMC 87-119; experiment: MIC, microtiter broth dilution; type: cell-based; settings: Morganella morganii, NEMC87119, 18 h, no cysteine stated
# Protocol: as §1
# [17] = system: X. maltophilia FPOR 87-210; experiment: MIC, microtiter broth dilution; type: cell-based; settings: Stenotrophomonas maltophilia, FPOR87210, 18 h, no cysteine stated
# Protocol: as §1
# [18] = system: E. coli UBMS 88-1 (tetB); experiment: microbe, parasite or virus in culture; type: cell-based; settings: Escherichia coli, 18 h
# Protocol: as §1
# [19] = system: S. aureus UBMS 88-7 (tetK); experiment: microbe, parasite or virus in culture; type: cell-based; settings: Staphylococcus aureus, 18 h
# Protocol: as §1
# [20] = in the presence of cysteine (0.05%)
# [21] = Wild Type S30 no DTT, 1.0 mg/ml
# [22] = Wild Type S30 no DTT, 1:2 Dilution
# [23] = Wild Type S30 no DTT, 1:4 Dilution
# [24] = Wild Type S30 no DTT, 1:8 Dilution
# [25] = Wild Type S30 no DTT, 1:16 Dilution
# [26] = Wild Type S30 no DTT, 1:32 Dilution
# [27] = Wild Type S30 no DTT, 1:64 Dilution
# [28] = Wild Type S30 with DTT, 1.0 mg/ml
# [29] = Wild Type S30 with DTT, 1:2 Dilution
# [30] = Wild Type S30 with DTT, 1:4 Dilution
# [31] = Wild Type S30 with DTT, 1:8 Dilution
# [32] = Wild Type S30 with DTT, 1:16 Dilution
# [33] = Wild Type S30 with DTT, 1:32 Dilution
# [34] = Wild Type S30 with DTT, 1:64 Dilution
structure (smiles),measurement,setting,value
"CN(C)c1cc(N)c(O)c2c1C[C@H]1C[C@H]3[C@H](N(C)C)C(O)=C(C(N)=O)C(=O)[C@@]3(O)C(O)=C1C2=O [A, 9-Amino-7-(dimethylamino)-6-demethyl-6-deoxytetracycline hydrochloride]",MIC,[1]; [20],1 µg/mL
same,MIC,[2]; [20],0.003 µg/mL
same,MIC,[3]; [20],0.5 µg/mL
same,MIC,[4]; [20],2 µg/mL
same,MIC,[5]; [20],0.008 µg/mL
same,MIC,[6]; [20],0.5 µg/mL
same,MIC,[7]; [20],0.5 µg/mL
same,MIC,[8]; [20],0.015 µg/mL
same,MIC,[9]; [20],0.015 µg/mL
same,% Inhibition,[10]; [21],88%
same,Counts,[10]; [21],52595
same,% Inhibition,[10]; [22],82%
same,Counts,[10]; [22],80494
same,% Inhibition,[10]; [23],79%
same,Counts,[10]; [23],95015
same,% Inhibition,[10]; [24],72%
same,Counts,[10]; [24],130209
same,% Inhibition,[10]; [25],55%
same,Counts,[10]; [25],205392
same,% Inhibition,[10]; [26],35%
same,Counts,[10]; [26],297786
same,% Inhibition,[10]; [27],46%
same,Counts,[10]; [27],245494
same,% Inhibition,[10]; [28],96%
same,Counts,[10]; [28],38121
same,% Inhibition,[10]; [29],93%
same,Counts,[10]; [29],60891
same,% Inhibition,[10]; [30],89%
same,Counts,[10]; [30],92203
same,% Inhibition,[10]; [31],84%
same,Counts,[10]; [31],143215
same,% Inhibition,[10]; [32],75%
same,Counts,[10]; [32],214831
same,% Inhibition,[10]; [33],73%
same,Counts,[10]; [33],238321
same,% Inhibition,[10]; [34],56%
same,Counts,[10]; [34],380103
same,inhibition of protein synthesis on wild type ribosomes (in words),[10],effectively inhibit protein synthesis
"CN(C)c1ccc(O)c2c1C[C@H]1C[C@H]3[C@H](N(C)C)C(O)=C(C(N)=O)C(=O)[C@@]3(O)C(O)=C1C2=O [B, 7-(Dimethylamino)-6-demethyl-6-deoxytetracycline hydrochloride]",MIC,[1]; no cysteine stated,8 µg/mL
same,MIC,[2]; no cysteine stated,0.015 µg/mL
same,MIC,[11],8 µg/mL
same,MIC,[12],0.5 µg/mL
same,MIC,[13],> 32 µg/mL
same,MIC,[14],16 µg/mL
same,MIC,[3]; no cysteine stated,4 µg/mL
same,MIC,[15],16 µg/mL
same,MIC,[16],2 µg/mL
same,MIC,[4]; no cysteine stated,4 µg/mL
same,MIC,[5]; no cysteine stated,≤ 0.004 µg/mL
same,MIC,[6]; no cysteine stated,4 µg/mL
same,MIC,[7]; no cysteine stated,1 µg/mL
same,MIC,[8]; no cysteine stated,0.008 µg/mL
same,MIC,[9]; no cysteine stated,0.015 µg/mL
same,MIC,[17],0.06 µg/mL
same,MIC,[18],8 µg/mL
same,MIC,[19],0.03 µg/mL
same,% Inhibition,[10]; [21],87%
same,Counts,[10]; [21],57696
same,% Inhibition,[10]; [22],83%
same,Counts,[10]; [22],76804
same,% Inhibition,[10]; [23],88%
same,Counts,[10]; [23],53400
same,% Inhibition,[10]; [24],64%
same,Counts,[10]; [24],162405
same,% Inhibition,[10]; [25],53%
same,Counts,[10]; [25],213077
same,% Inhibition,[10]; [26],33%
same,Counts,[10]; [26],306650
same,% Inhibition,[10]; [27],0%
same,Counts,[10]; [27],457601
same,% Inhibition,[10]; [28],93%
same,Counts,[10]; [28],58885
same,% Inhibition,[10]; [29],91%
same,Counts,[10]; [29],78961
same,% Inhibition,[10]; [30],87%
same,Counts,[10]; [30],111971
same,% Inhibition,[10]; [31],83%
same,Counts,[10]; [31],149792
same,% Inhibition,[10]; [32],76%
same,Counts,[10]; [32],207484
same,% Inhibition,[10]; [33],67%
same,Counts,[10]; [33],289304
same,% Inhibition,[10]; [34],41%
same,Counts,[10]; [34],518601
same,inhibition of protein synthesis on wild type ribosomes (in words),[10],effectively inhibit protein synthesis
